The text below walks through data of paper PMC2621304 (Analytical biochemistry, 2008).

The Ki is a dissociation constant, usually derived from enzyme kinetics or from competition with a known ligand.

Series [1] addresses T1, Rat AhR (Rattus norvegicus, UniProt P41738).
T1 sequence (P41738 10-853): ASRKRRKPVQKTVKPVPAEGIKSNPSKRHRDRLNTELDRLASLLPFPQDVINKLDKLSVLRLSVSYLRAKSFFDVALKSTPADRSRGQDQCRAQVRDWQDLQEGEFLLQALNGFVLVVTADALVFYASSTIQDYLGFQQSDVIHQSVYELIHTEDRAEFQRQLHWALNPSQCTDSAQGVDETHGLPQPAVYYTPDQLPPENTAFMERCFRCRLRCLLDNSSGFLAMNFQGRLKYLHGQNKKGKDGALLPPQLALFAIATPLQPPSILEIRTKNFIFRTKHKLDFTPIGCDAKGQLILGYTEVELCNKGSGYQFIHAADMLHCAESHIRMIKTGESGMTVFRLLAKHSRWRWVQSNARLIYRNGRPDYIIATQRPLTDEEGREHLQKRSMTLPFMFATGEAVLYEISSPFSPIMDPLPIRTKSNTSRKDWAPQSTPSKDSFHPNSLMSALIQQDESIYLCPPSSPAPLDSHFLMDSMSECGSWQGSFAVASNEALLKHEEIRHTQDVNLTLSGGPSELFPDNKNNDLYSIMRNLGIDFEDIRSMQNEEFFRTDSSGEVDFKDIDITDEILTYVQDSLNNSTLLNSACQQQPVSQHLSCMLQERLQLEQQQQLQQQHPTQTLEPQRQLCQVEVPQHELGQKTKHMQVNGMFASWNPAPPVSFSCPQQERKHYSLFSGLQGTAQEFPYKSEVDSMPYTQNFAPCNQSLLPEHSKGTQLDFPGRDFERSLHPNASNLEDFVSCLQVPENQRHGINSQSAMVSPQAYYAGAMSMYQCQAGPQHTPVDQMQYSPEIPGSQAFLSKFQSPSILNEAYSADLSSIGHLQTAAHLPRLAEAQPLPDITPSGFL
As to the kind of experiment: Competitive binding assay against [3H]-TCDD, recombinant rat AhR.

Series [2] has as its target T2, Human AhR (Homo sapiens, UniProt P35869).
T2 sequence (P35869 11-848): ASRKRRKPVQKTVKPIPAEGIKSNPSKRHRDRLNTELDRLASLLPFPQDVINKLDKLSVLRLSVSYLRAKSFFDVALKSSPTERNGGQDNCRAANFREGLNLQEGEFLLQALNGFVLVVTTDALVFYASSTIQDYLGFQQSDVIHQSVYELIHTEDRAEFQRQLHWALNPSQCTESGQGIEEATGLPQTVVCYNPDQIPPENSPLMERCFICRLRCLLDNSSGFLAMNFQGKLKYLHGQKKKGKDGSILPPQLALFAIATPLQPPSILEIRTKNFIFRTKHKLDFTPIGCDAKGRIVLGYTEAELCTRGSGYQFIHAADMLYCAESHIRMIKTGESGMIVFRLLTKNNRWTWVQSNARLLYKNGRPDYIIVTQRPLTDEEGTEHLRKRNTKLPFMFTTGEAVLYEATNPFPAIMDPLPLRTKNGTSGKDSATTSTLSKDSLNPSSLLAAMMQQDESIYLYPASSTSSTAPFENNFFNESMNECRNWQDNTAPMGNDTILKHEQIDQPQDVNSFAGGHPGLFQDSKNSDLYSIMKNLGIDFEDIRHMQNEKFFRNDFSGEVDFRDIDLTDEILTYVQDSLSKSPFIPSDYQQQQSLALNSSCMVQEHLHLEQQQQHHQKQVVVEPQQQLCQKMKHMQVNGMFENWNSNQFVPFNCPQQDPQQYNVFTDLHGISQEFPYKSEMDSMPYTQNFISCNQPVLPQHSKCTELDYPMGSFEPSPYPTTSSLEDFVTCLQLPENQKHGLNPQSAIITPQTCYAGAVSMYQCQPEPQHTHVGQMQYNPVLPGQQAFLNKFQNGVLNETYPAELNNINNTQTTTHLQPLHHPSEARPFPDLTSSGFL
As to the kind of experiment: Competitive binding assay against [3H]-TCDD, recombinant human AhR.

The next series deals with T3, AhR in rat liver cytosol (Rattus norvegicus, UniProt P41738).
T3 sequence (P41738 10-853): T1 sequence (P41738 10-853)
Briefly: [3H]-TCDD saturation binding, rat liver cytosol.

Series [3] concerns the target T1, Rat AhR. As to the kind of experiment: [3H]-TCDD saturation binding, recombinant rat AhR in Sf9 cytosol.
Series [4] deals with T2, Human AhR. As to the kind of experiment: [3H]-TCDD saturation binding, recombinant human AhR in Sf9 cytosol. Particulars: optimised conditions.
The nature of series [5]: Solubility of TCDD in protein solution. The class given is physicochemical. Particulars: unpublished data.

Turning to `Clc1cc2c(cc1Cl)Oc1c(cc(Cl)c(Cl)c1Cl)O2` [1,2,3,7,8-pentachlorodibenzo-p-dioxin], the Ki on Rat AhR [1] came out at 0.46 nM; on Human AhR [2], 7.62 nM.

For `Clc1cc2oc3c(Cl)c(Cl)c(Cl)cc3c2cc1Cl` [2,3,4,7,8-pentachlorodibenzofuran], the Ki at Rat AhR [1] stood at 1.5 nM; at Human AhR [2], 14.1 nM. For the same compound, the “potency as ligand relative to PCDD, rat AhR” value at Rat AhR [1] (relative to PCDD) is given as “three-fold less potent”. Moreover, on Human AhR [2], the “potency relative to TCDF and PCDD, human AhR” value is listed as “two-fold less potent”.

`Clc1cc2oc3cc(Cl)c(Cl)cc3c2cc1Cl` [2,3,7,8-tetrachlorodibenzofuran]: the inhibition constant (Ki) at Rat AhR [1] is 0.36 nM; on Human AhR [2], 6.27 nM.

As for `Clc1ccc(-c2cc(Cl)c(Cl)c(Cl)c2)cc1Cl` [PCB126, polychlorinated biphenyl 126], the inhibition constant (Ki) at Rat AhR [1] was determined as 24.7 nM; at Human AhR [2] it was 736 nM. The “fold less potent than TCDD, rat AhR” value at Rat AhR [1] (relative to TCDD) was about 50 fold. Further, the “fold less potent as a ligand than TCDD, human AhR” value at Human AhR [2] (relative to TCDD) is about 40 fold.

With `Clc1cc2c(cc1Cl)Oc1cc(Cl)c(Cl)cc1O2` [TCDD, 2,3,7,8-tetrachlorodibenzo-p-dioxin], the Kd came out at 1 ± 0.45 nM at AhR in rat liver cytosol (apparent Kd for TCDD, saturation binding, mean ± Standard deviation, n=6); 1.35 nM on Rat AhR [3] (Kd (typical experiment, Fig. 5A), MOI of 0.1, typical experiment); 1.34 ± 0.32 nM at Rat AhR [3] (Kd for TCDD, recombinant rat AhR, MOI of 0.1, n=6 independent determinations); 2.77 ± 0.94 nM at Human AhR [4] (Kd for TCDD, human AhR, n=6). Moreover, at AhR in rat liver cytosol (per mg cytosolic protein, [3H]-TCDD), the “maximal binding capacity (Bmax)” value is listed as 52 fmol/mg. For the same compound, on Rat AhR [3] (MOI of 0.1, [3H]-TCDD), the “Bmax, recombinant rat AhR” value is on record as 1.5±0.37 pmol/ mg cytosolic protein. Further, the “Bmax (typical experiment, Fig. 5A)” value at Rat AhR [3] (MOI of 0.1, typical experiment) is 1.83 pmol/mg. The “Bmax, human AhR” value at Human AhR [4] ([3H]-TCDD) worked out at 0.46±0.12 pmol/mg cytosolic protein. Further, the figures for the Ki on Rat AhR [1] and on Human AhR [2] were 0.55 nM and 15.4 nM, respectively. Moreover, at Human AhR [2], the “potency relative to TCDF and PCDD, human AhR” value was “two-fold less potent”. In addition, the “solubility in protein solution” value in series [5] is on record as “declines dramatically at concentrations much in excess of 2 nM”.
